Patent publication US20210139467A1 (GLAXOSMITHKLINE INTELLECTUAL PROPERTY DEVELOPMENT LIMITED, priority 2017, published 2021)

What was measured:
PAN02 pancreatic cells = conditions: cited from earlier work
[1] = system: conversion of T cells into CD4+FoxP3+ Tregs; conditions: co-culture of DCs and naive CD4+CD25- T cells; cited from earlier work
IDO1 = IDO1 (Homo sapiens, UniProt P14902); assay: IDO1 HeLa RapidFire MS Assay; assay type: cell-based; design: stimulated with human interferon-γ (IFN-γ); conditions: HeLa cells stimulated with IFN-γ; kynurenine detected by mass spectrometry; 2 days; read-out: IDO1 HeLa pIC50 (converted)
Sequence of IDO1 (P14902 whole entry): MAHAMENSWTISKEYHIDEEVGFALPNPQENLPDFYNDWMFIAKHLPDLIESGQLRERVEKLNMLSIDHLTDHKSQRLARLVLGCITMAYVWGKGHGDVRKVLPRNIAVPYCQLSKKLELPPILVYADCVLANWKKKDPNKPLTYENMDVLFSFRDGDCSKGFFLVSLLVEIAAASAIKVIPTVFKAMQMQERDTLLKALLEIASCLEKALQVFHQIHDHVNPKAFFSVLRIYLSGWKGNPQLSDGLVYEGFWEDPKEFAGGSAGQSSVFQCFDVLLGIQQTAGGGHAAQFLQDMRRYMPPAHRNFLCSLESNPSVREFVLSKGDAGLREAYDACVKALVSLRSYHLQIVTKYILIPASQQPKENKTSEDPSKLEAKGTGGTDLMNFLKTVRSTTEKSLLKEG
Description: IDO1 HeLa RapidFire MS Assay
Compounds of the present invention were tested via high-throughput cellular assays utilizing detection of kynurenine via mass spectrometry and cytotoxicity as end-points. For the mass spectrometry and cytotoxicity assays, human epithelial HeLa cells (CCL-2; ATCC®, Manassas, Va.) were stimulated with human interferon-γ (IFN-γ) (Sigma-Aldrich Corporation, St. Louis, Mo.) to induce the expression of indoleamine 2, 3-dioxygenase (IDO1). Compounds with IDO1 inhibitory properties decreased the amount of kynurenine produced by the cells via the tryptophan catabolic pathway. Cellular toxicity due to the effect of compound treatment was measured using CellTiter-Glo® reagent (CTG) (Promega Corporation, Madison, Wis.), which is based on luminescent detection of ATP, an indicator of metabolically active cells. […]
Following incubation, the 384-well plates were removed from the incubator and allowed to equilibrate to room temperature for 30 minutes. […] After a twenty minute incubation at room temperature, luminescence was read on an EnVision® Multilabel Reader (PerkinElmer Inc., Waltham, Mass.). […]

SMILES | inhibition of tumor growth (PAN02 pancreatic cells; PAN02 syngeneic model, immunocompetent mice, orally dosed) | effect on tumor growth (PAN02 pancreatic cells; same tumor implanted in immune-deficient mice) | conversion of T cells into CD4+FoxP3+ Tregs [1] | IC50 (IDO1)
NS(=O)(=O)NCCNc1nonc1C(=NO)Nc1ccc(F)c(Br)c1 [INCB204360, epacadostat] | significant dose-dependent inhibition of tumor growth | without effect | blocked the conversion | 
CC(C)CN(c1ccc(C2(C(=O)NS(C)(=O)=O)CC2)nc1Nc1ccc(Cl)cn1)C1CCOCC1 [Example 16, 1-(6-((5-chloropyridin-2-yl)amino)-5-(isobutyl(tetrahydro-2H-pyran-4-yl)amino)pyridin-2-yl)-N-(methylsulfonyl)cyclopropane-1-carboxamide] |  |  |  | 0.01 µM
CC(C)CN(c1ccc(C2(C(=O)O)CC2)nc1Nc1ccc(Cl)cn1)C1CCOCC1 [Example 15, 1-(6-((5-chloropyridin-2-yl)amino)-5-(isobutyl(tetrahydro-2H-pyran-4-yl)amino)pyridin-2-yl)cyclopropane-1-carboxylic acid] |  |  |  | 0.158 µM
